The subject of one experiment is LNCaP C4-2B. Nature of the experiment: Cytotoxicity against human C4-2B cells after 72 hrs by MTT assay. The class given is functional, cell-based. Background: Formazan colour is commonly taken as a measure of viable cells.
For a further experiment, the system named is DU-145. Nature of the experiment: Growth inhibition of human DU145 cells at 2 uM after 72 hrs by MTT assay relative to control. The class given is functional. Conditions: DU-145, 72 h, read-out: GI.

As a reminder, the IC50 is the concentration at which inhibition is half-maximal. A higher IC50 goes with a need for much substance.

Take `C[C@@H]1NC(=O)/C=C/[C@@H](O)CC[C@H](C)NC(=O)[C@H]2C[C@]1(O)NC1=C2C(=O)N[C@@H](C)C1`: in the experiment on LNCaP C4-2B, the IC50 was 5.4 µM. Also, in the experiment on DU-145, the inhibition of growth at 2 µM was determined as 4.5%.

(Values after ChEMBL document CHEMBL4190202, “Gunnilactams A-C, Macrocyclic Tetralactams from the Mycelial Culture of the Entomogenous Fungus Paecilomyces gunnii” (J Nat Prod, 2017).)
